Data on five molecules can be found in patent publication US20210163489A1, “PYRAZOLOPYRIMIDINE DERIVATIVES AND THE COMPOSITIONS AND METHODS OF TREATMENT REGARDING THE SAME” (NysnoBio Ireland DAC, priority 2016, published 2021).

Some results are limits rather than exact numbers.

One data set addresses T1, Parkin ligase (Homo sapiens, UniProt O60260).
T1 construct: Enzyme: Parkin-His tagged 203 μM (10.5 mg/ml)
T1 sequence (O60260 1-465): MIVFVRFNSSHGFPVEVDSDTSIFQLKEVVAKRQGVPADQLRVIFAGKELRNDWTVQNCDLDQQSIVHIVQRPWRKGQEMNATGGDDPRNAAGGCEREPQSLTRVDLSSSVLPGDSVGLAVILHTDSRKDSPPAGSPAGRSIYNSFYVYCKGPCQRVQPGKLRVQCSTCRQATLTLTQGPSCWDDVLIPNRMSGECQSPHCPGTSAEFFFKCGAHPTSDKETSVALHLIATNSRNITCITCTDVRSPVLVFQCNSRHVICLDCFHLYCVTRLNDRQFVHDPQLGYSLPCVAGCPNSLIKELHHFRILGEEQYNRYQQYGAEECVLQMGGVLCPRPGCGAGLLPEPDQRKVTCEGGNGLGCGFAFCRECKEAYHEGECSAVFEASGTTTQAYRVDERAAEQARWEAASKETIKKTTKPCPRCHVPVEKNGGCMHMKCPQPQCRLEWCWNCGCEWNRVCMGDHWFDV
Nature of the data set: Activity-based probe assay using an ubiquitin vinyl sulfone probe (TR-FRET). In kind it is biochemical. The following applies: activation of heat activated Parkin, HA-Ub-VS probe; read-out: Probe Assay EC50 (μM) [Example 2]. As for the experimental part:
An Ubiquitin vinyl sulfone probe can be used that irreversibly binds to the active site cysteine of Parkin ligase. Covalent attachment of the probe to the Parkin can be monitored by TR-FRET. Candidate activator compounds can be identified by increasing the activity of Parkin ligase due to an increase in TR-FRET signal. Screening for activating compounds can be distinguished from the controls as follows:
100% activation signal=Heat activated Parkin+100 nM control activator in DMSO. 0% activation signal=Heat activated Parkin+DMSO only. Parkin activators can be identified by an increase of the 0% activation signal TR-FRET signal.
• Assay Plate: White 384 well plate (Corning 3572) • Enzyme: Parkin-His tagged 203 μM (10.5 mg/ml) • Probe: Ubiquitin vinyl-sulfone (HA-Ub-VS Boston Biochem U-212) • DMSO: DMSO (Sigma cat # D4540-100ML) • Reaction Buffer: 50 mM HEPES (pH 8.5), 150 mM NaCl, 0.01% Tween 20, 0.1% BSA • Detection Buffer: 50 mM HEPES (pH 8.5), 150 mM NaCl, 0.01% Tween 20, 0.1% BSA, 800 mM KF • Detection Reagent A: 2.6 nM Anti-6HIS-Eu cryptate and 40 nM Anti-HA-XL665 in detection buffer • Eu cryptate: Anti-6HIS-Eu cryptate (CisBio 61HISKLA) • XL665: Anti-HA-XL665 (CisBio 610HAXLA) Enzyme Reaction (15 min Pre Incubation Parkin with Activator Only) • Parkin: 40 nM • HA-Ub-VS Probe: 70 nM • Activator/DMSO: 2× Activator/2% DMSO • Reaction time: 60 minutes • Temperature: 22° C. • Total volume: 10 μl reaction
• Take 10 μl of Enzyme Reaction above and add 10 μl detection Reagent A under the following conditions: • Reaction time: 60 minutes • Temperature: 22° C. • Total volume: 20 μl
Assay procedure (Using HP D-300 compound dispenser and Bravo for the operation):
1) Heat activate Parkin in reaction buffer (500 μl/1.5 ml tube: Eppendorf Thermomixer 5 minutes, 400 rpm at 58° C. and put on ice until needed). 2) Load assay plate wells with 4.8 μl 84.5 nM Parkin in reaction buffer by use of Bravo. 3) Deliver 0.2 μl 200× activator candidates in DMSO by use of HP D-300 compound dispenser. Highest 200× concentration=20 μm and then twofold dilutions. 4) Spin 1000 rpm, 2 minutes, at room temp. 5) Incubate plate for 15 minutes at room temp. 6) Add 5 μl 140 nM HA-Ub-VS Probe in reaction buffer by use of Bravo. 7) Spin 1000 rpm, 2 minutes, at room temp. 8) Incubate plate for 60 minutes at room temp. 9) Add 10 μl 2.6 nM Anti-6HIS-Eu cryptate and 40 nM Anti-HA-XL665 in detection buffer. 10) Spin 1000 rpm, 2 minutes, at room temp. 11) Incubate plate for 60 minutes at room temp. 12) Read plates on Perkin Elmer Envision instrument with the following parameters:
(§1) LANCE dual laser protocol loaded into the Envision® software
(§2) Top Mirror: LANCE/DELFIA Duel/Bias (Bar code 446) Emission Filter: APC 665 EM (Bar code 205) 2nd Emission Filter: Europium 615 EM (Bar code 203) Read […] (channel 1) and 615 nm (channel 2) wavelengths on Envision®
(§3) Data Analysis: The Data can be read in CSV files. There are two tables in those CSV files, which are the values of 655 nm (channel 1) and 615 nm (channel 2) wavelengths respectively. The data is converted to an HTRF Ratio=(Channel 1/Channel 2)*10,000
The average of all the 0 uM controls (DMSO only)=BKGD (Background—0% activation). Subtract BKGD from each HTRF Ratio value=HTRF-BKGD. The average of all the […] 100 nM control activator in DMSO controls=Max (100% activation). The following equation is then used to calculate % Activation for each well/candidate as follows: % Activation=(HTRF−BKGD/Max)*100.
Graphpad Prisim was used with Transform X values: X=Log(X) and nonlinear regression (dose-response-stimulation): Log(agonist) vs Response—variable slope (four parameters) with constrains set to Bottom=0 and Top=100.
In general terms: TR-FRET usually uses a lanthanide donor and a delayed reading to cut background.

Data set [1] can be described thus: Metabolic stability in rat liver microsomes (RLM). Format: in vitro ADME. The following applies: 1 μM compound, 1.0 mg/mL microsome, NADPH. How it is done: Compounds were also tested for metabolic stability in both rat liver microsomes (RLM) and human liver microsomes (HLM) and their half-life calculated (See Table 6). The assay was performed as follows. The total volume for each incubation was 250 μL. A 100 μM DMSO solution of compound (diluted from 10 mM stock solution) was spiked into 50 mM KH2PO4 (pH 7.4) buffer containing liver microsome at a concentration of 1.0 mg/mL. The reaction was initiated by the addition of 50 μL of 1 mM NADPH. The final concentration of each compound was 1 μM (1% DMSO). The positive controls, phenacetin for CYP1A2, diclofenac for CYP2C9, omeprazole for CYP2C19, dextromethorphan for CYP2D6 and midazolam for CYP3A4 were added to a separate tube with the final substrate concentrations of 1 μM (1% DMSO) for evaluating the enzyme activities in the liver microsomes. At 0, 15, 30 and 60 min, an aliquot of 15 μL reaction mixtures were removed and 200 μL of methanol (with internal standard of 25 ng/mL propranolol) was added to quench the reaction. The resulting mixture was centrifuged and supernatant was used for LC-MS/MS analysis.
The signals for each compound, or the metabolites for the probe substrates and the internal standard were integrated and the peak area ratios to internal standard were generated. Percent parent remaining at a specified timepoint was calculated based on the peak area ratios at time 0 (as 100%) for in vitro metabolic stability studies in liver microsome and hepatocyte. The observed rate constant (kobs) for the metabolism of substrates was calculated by plotting the natural log of percentage substrate remaining versus time of incubation with the slope being kobs. The half-life (T1/2) was calculated according to the following equation: […]

The target of a further data set is T2, Parkin (Homo sapiens, UniProt O60260).
T2 construct: Enzyme 3: Parkin-His tagged 203 μM (10.5 mg/ml)
Nature of the data set: Parkin pUB auto-ubiquitinylation assay (TR-FRET). Format: biochemical. The note with it: activation of pUb activated Parkin; read-out: Auto-ubiq EC50 (μM) [Example 3].
Excerpt: A Parkin pUB Auto-ubiquitinylation Assay is used to evaluate a compound's potency to activate Parkin's ability to Auto-ubiquitinylate itself.
The principle of this assay is that the E3 Ligase Parkin catalyzes the transfer of Ubiquitin to target proteins, but also has the ability to auto-ubiquitinylate itself. The phospho-Ubiquition (pUb) added to the assay alters the Parkin to a state where small molecule activators can enable the Parkin to auto-ubiquitinylate though the E1-E2 cascade reaction. The use of a Eu cryptate Ubiquition and anti 6His-d2 that binds to the His tagged Parkin will give a signal when the Eu cryptate Ubiquition is auto-ubiquitinylate onto the Parkin which can be monitored by TR-FRET.
Similar to the Activity-based probe assay in Example 2, screening for activating compounds can be distinguished from the controls as follows:
100% activation signal=pUb activated Parkin+40 nM control activator in DMSO. 0% activation signal=pUb activated Parkin+DMSO only. Parkin activators can be identified by an increase of the 0% activation signal TR-FRET signal.
• Assay Plate: White 384 well plate (Corning 3572) • Enzyme 1: E1 (Ubiquitin-activating enzyme/UBE1 Boston Biochem E-305) • Enzyme 2: E2 (UBcH7/Ube2L3 Boston Biochem E2-640) • Enzyme 3: Parkin-His tagged 203 μM (10.5 mg/ml) • pUb: Phospho-Ubiquitin (S65) (Boston Biochem U-102) • Eu Cryptate Reagent: Ubiquitin Eu (CisBio 61UBIKLA) • DMSO: DMSO (Sigma-34869-2.5L) • Reaction Buffer: 50 mM HEPES, 50 mM NaCl, 1 mM MgCl2, 0.005% Tween 20, 0.1% • PF-127 (Fisher Scientific 50-310-494), pH 8.5 • Detection Buffer: 50 mM HEPES, 50 mM NaCl, 800 mM KF, 5 mM EDTA, 0.005% • Tween 20, 0.1% PF-127, pH 8.5 • Detection Reagent Z: 13.4 nM Anti-6His-d2 in detection buffer • d2 Reagent: Anti-6His-d2 (CisBio 61HISDLA)
Enzyme Reaction (15 min Pre-Incubation with Parkin, pUb and Activator Only) • Parkin: 196 nM • pUb: 196 nM • DMSO: 1% DMSO • E1: 5 nM • E2: 50 nM • Ubiquitin Eu: 8.8 nM • Reaction time: 120 minutes • Temperature: 22° C. • Total volume: 10 μl reaction
Take 10 μl of Enzyme Reaction above and add 10 μl detection Reagent Z under the following conditions:
Reaction time: 60 minutes
1) Load assay plate wells with 4.9 μl 400.0 nM Parkin, 400 nM pUb in reaction buffer by use of Eppendorf 12-channel pipette. 2) Deliver 0.1 μl 100× activator candidates in DMSO by use of Echo 555 compound dispenser. Highest 100× concentration=100 μm and then twofold dilutions. Add each compound and control in duplicate wells. 3) Spin 1000 rpm, 2 minutes, at room temp. 4) Incubate plate for 15 minutes at room temp. 5) Add 5 μl 10 nM E1, 100 nM E2, 17.6 nM Ubiquitin Eu and 2 mM ATP in Reaction Buffer by use of Eppendorf 12-channel pipette. 6) Spin 1000 rpm, 2 minutes, at room temp. 7) Incubate plate for 120 minutes at room temp. 8) Add 10 μl 13.4 nM anti his d2 in detection buffer by use of Eppendorf 12-channel pipette. 9) Spin 1000 rpm, 2 minutes, at room temp. 10) Incubate plate for 120 minutes at room temp. 11) Read plates on Perkin Elmer Envision instrument with the following parameters:
as §1, §2, §3
The average of all the 0 uM controls (DMSO only)=BKGD (Background—0% activation). Subtract BKGD from each HTRF Ratio value=HTRF-BKGD. The average of all the 100 uM control activator in DMSO controls=Max (100% activation). The following equation is then used to calculate % Activation for each well/candidate as follows: % Activation=(HTRF−BKGD/Max)*100.
XLFIT5 model 205 was applied for the data analysis. […]

A word on the EC50: it is the midpoint of the concentration-response curve. `COc1ccc(-c2cnn3c(O)c4c(nc23)CN(C)CC4)cc1` [Compound R3]: the EC50 on Parkin ligase was above 100 µM. The same measure, in the same setting: the figure for `COc1ccc(-c2cnc3c(O)cc(C)nn23)cc1` [Compound V3] is above 100 µM. Turning to `COc1ccc(-c2cnc3c(S)cc(C)nn23)cc1` [Compound Q3], in data set [1], the “RLM t1/2” value is reported as 6.0 min. At Parkin, the EC50 is above 40 µM.

Take `Cc1ccc(-c2cnc3c(O)cc(C)nn23)cc1` [Compound U3]: on Parkin ligase, the EC50 is above 100 µM. `COc1ccc(-c2cnc3c(S)cc(C)nn23)cc1` [Compound T3]: the “RLM t1/2” value in data set [1] is recorded as 96.0 min.
